Test results: BindingDB's records for patent US20240158369 (Wigen Biomedicine Technology (Shanghai), 2024)

Target: Wee1-like protein kinase (Homo sapiens, UniProt P30291)
Test: In-Vitro Assay
Method: The inhibitory effect of the compounds on the enzyme activity of recombinant protein Wee-1 was determined by HTRF. The procedures are as follows: After DMSO or serially diluted compounds (up to 200 nM, 1:5 diluted) and recombinant proteins were co-incubated in a kinase buffer at 37° C. for 30 min before Fluorescein-PolyGAT and ATP were added, and the reaction was initiated by addition of a substrate. After incubation at room temperature for 90 min, an antibody and a detection solution were added, and after further incubation at room temperature for 60 min, fluorescence values were detected (excitation wavelength: 340 nm, emission wavelengths: 495 and 520 nm). The 520 nm/495 nm fluorescence intensity ratio value was calculated, and compared with that of the DMSO group, and then the inhibition percentages and IC50 values of the compounds were calculated.

Wee1-like protein kinase, sequence (P30291 whole entry): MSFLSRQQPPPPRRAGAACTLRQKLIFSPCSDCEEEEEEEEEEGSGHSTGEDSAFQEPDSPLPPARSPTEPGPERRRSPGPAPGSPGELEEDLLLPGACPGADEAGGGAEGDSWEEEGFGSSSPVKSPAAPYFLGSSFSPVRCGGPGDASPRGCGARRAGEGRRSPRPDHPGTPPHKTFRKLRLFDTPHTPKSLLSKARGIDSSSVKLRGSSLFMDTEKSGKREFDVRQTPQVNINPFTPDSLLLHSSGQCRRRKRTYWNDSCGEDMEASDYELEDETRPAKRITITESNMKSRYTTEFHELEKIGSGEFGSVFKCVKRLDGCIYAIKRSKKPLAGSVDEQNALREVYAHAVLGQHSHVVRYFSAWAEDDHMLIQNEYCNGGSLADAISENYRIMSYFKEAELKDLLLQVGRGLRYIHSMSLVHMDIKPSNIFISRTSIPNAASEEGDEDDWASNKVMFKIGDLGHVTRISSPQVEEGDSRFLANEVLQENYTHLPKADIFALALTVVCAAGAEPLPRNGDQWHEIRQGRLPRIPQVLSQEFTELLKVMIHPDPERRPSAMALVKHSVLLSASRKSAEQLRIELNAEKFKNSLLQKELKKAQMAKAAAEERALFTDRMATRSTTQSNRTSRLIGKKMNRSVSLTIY

CC(C)Cc1cc(Nc2ncc(C#N)c(Nc3cccc(N=S(C)(C)=O)n3)n2)cc2c1CCN(C)C2 [US20240158369, Compound 87]
IC50: < 10 nM
